Laboratory results from PubChem BioAssay AID1505 (Sanford-Burnham Center for Chemical Genomics, 2009).
In brackets after ≈: the same amount, converted by molar mass. Activity calls are given as the source filed them. The rule behind the calls is not given here.

System: Y. pseudotuberculosis YP126 growth, MIC at 37 C
Test: Y. pseudotuberculosis growth inhibition MIC, strain YP126, 22/37/40 C (AID 1505)

Row | Structure (SMILES) | MIC | MIC (measured here: MIC at 22 C) | MIC (measured here: MIC at 40 C)
1 | Cc1ccc(CNC(=O)c2ccc([N+](=O)[O-])o2)cc1 | 25 µM (≈ 6.51 µg/mL) | 400 µM (≈ 104 µg/mL) | < 12 µM
2 | O=C(Nc1ccc2[nH]ccc2c1)c1cccs1 | 400 µM (inactive) (≈ 96.9 µg/mL) | 400 µM (≈ 96.9 µg/mL) | 400 µM (≈ 96.9 µg/mL)
